Source: a melting point compilation (Tetko et al.; mined from patent text by program, amines drawn as free bases though some values may be those of a salt)

Row | melting point [°C] | Compound
1 | 109 to 112 | CC1(C)C(=O)N(CC#CI)C(=O)N1Cc1ccccc1
2 | 225 | CCOc1ccccc1C1(CC(=O)N2CCN(c3ccncc3)CC2)C(=O)N(S(=O)(=O)c2ccc(OC)cc2OC)c2ccc(Cl)cc21 (centres undefined)
3 | 91 to 93 | c1ccc2c(c1)-c1sccc1C2Cc1ccncc1 (centres undefined)
4 | 76 | CCCCCCCC(=O)N[C@@H](Cc1ccc(O)cc1)C(=O)OC
5 | 96 to 98 | O=C(NCCc1ccc(O)cc1)OCc1ccccc1
6 | 126 to 127 | CCN1CCCNC1=C[N+](=O)[O-]
7 | 209 to 210 | COc1cc(C(=O)N2Cc3ccccc3Cc3ccccc32)ccc1NC(=O)c1ccccc1C
8 | 116 | Cc1noc(-c2ccc([C@H]3CN(C(=O)OC(C)(C)C)CCO3)cc2)n1
9 | 55 to 58 | COc1ccc2cc([C@H](C)C(=O)OCCOC(=O)C(=O)OCCCO[N+](=O)[O-])ccc2c1
10 | 58 to 62 | O=[N+]([O-])c1ccc(Oc2ccc(F)cc2F)cc1
11 | 165 to 166 | O=C1CCCN1c1cc(-c2ccnc(Nc3cccc(Cl)c3)n2)ccn1
12 | 145 to 147 | CCCCC(=O)Nc1ccc(C(F)(F)F)c(-n2nc(CCCC)n(Cc3ccc(-c4ccccc4S(=O)(=O)NC(=O)c4ccccc4Cl)cc3F)c2=O)c1
13 | 168 to 170 | COc1cc2ncnc(N3CCN(C(=O)NCc4ccco4)CC3)c2cc1OC
14 | 177 to 184 | COC(=O)C1CCC2C3CCC4CC(O)C(OC)CC4(C)C3C(N)CC12C (centres undefined)
15 | 150 to 151 | O=C(O)COc1ccc(CC(Cc2ccccc2)NS(=O)(=O)c2ccc(Cl)cc2)cc1 (centres undefined)
16 | 68 | CC(C)C(=O)N(Cc1ccccc1)c1nnn(Cc2ccccc2)n1
17 | 50 to 54 | CCCCOC(CCN)(c1ccccc1)c1ccccc1
18 | 167 | C=CCN(C1CCN(C)CC1)S(=O)(=O)c1ccc(Nc2nccc(Nc3ccc(F)cc3)n2)cc1
19 | 258 to 261 | Cc1c(-c2ccncc2)[nH]c(-c2ccncc2)c1CO

Row | melting point [°C] | Compound
20 | > 300 | O=c1nc(-c2ccccc2)c2cc([N+](=O)[O-])ccc2[nH]1
21 | 156 to 158 | CN(c1cccc2cc(C3=NCC(CC(C)(C)O)S3)[nH]c12)S(=O)(=O)c1cccs1 (centres undefined)
22 | 82 to 83 | O=C1CCCc2onc(-c3ccccc3F)c21
23 | 151 to 153 | Cc1cn(-c2ccc(N3C[C@H](CO)OC3=O)cc2F)cn1
24 | 151 to 153 | CN(C)C(=O)c1cccc(NC(=O)Oc2ccccc2)c1
25 | 188 to 191 | N#CSc1ccc(NC(=O)OCc2cccnc2)cc1
26 | 134 | Cc1nc2sccn2c(=O)c1CCN1CCC(n2ccc3ccccc32)CC1
27 | 181 to 183 | CC12CCC3c4ccc(C(=O)O)cc4CCC3C1CCC2C(=O)CCc1ccccc1 (centres undefined)
28 | 233 to 236 | CCOC(=O)c1c[nH]c2c(O)c(OC)ccc2c1=O
29 | 142 to 143 | CCOC(=O)c1cn(-c2ccc(OC)cc2)c(-c2ccc(OC)cc2)n1
30 | 213 to 214 | CCCn1c(=O)c2[nH]c(C34CC5CC(CC(O)(C5)C3)C4)nc2n(CCC)c1=O
31 | 226 to 228 | CC(=O)c1ccc2oc3ccc(C(C)=O)cc3c(=O)c2c1
32 | 106 to 107 | COc1ccc2oc(-c3ccccc3)c(C)c2c1
33 | 126 to 127 | CCc1c(C#N)c(-c2ccc(C#N)cc2)c(C)n1Cc1cnc(Cl)c(CO)c1
34 | 90 to 90.5 | COC(=O)c1ccc(C(=O)C=C(c2cc(Cl)cc(C(F)(F)F)c2)C(F)(F)F)c2ccccc12
35 | < 250 | NNC1(Cl)C=Cc2nc(Cl)cnc2C1 (centres undefined)
36 | 182 to 183 | CC(=O)Nc1ccc(S(N)(=O)=O)cc1[N+](=O)[O-]
37 | 159 to 161 | Cc1nn(-c2ccccc2)c(-c2ccccc2)c1CC(=O)O
38 | 150 to 151 | COC(=O)C1CCN2C(=O)C(=O)c3cc(Br)cc1c32 (centres undefined)

Row | Compound | melting point [°C]
39 | CN(SC1CCCCCCC1Cl)C(=O)Nc1ccc(Cl)c(Cl)c1 (centres undefined) | 90 to 91
